These results are taken from ChEMBL document CHEMBL1133282, “Synthesis and preliminary biological evaluation of 4,6-disubstituted 3-cyanopyridin-2(1H)-ones, a new class of calcium entry blockers” (Bioorg Med Chem Lett, 2000).

The species entered for one assay is Rattus norvegicus. Kind of assay: Vasorelaxing activity expressed as maximum smooth muscle relaxation at 1*10e-5 M. Format: functional.
As to `COc1ccc(OC)c(-c2cc(-c3ccccc3O)nc(O)c2C#N)c1`, the Max relaxation came to 95.51%.

The next assay is filed under the species Rattus norvegicus. Kind of assay: Tested in vitro on K+ -depolarized rat aorta strips to evaluate its ability to relax the initial contraction induced by K. Format: functional.
Take `Cc1ccccc1-c1cc(-c2ccccc2O)nc(O)c1C#N`: the IC50 came to 1000 nM.

`COc1ccc(OC)c(-c2cc(-c3ccccc3O)nc(O)c2C#N)c1` gave a half-maximal inhibitory concentration (IC50) of 1.1 nM.

As to `N#Cc1c(-c2ccccc2Cl)cc(-c2ccccc2O)nc1O`, half-maximal inhibition (IC50) was put at 30 nM.

`COc1ccc(-c2cc(-c3ccccc3O)nc(O)c2C#N)c(OC)c1` had an IC50 of 380 nM.

`N#Cc1c(-c2ccccc2)cc(-c2ccccc2O)[nH]c1=O` yielded an IC50 of 0.95 nM.

In turn, `N#Cc1c(-c2ccccc2Br)cc(-c2ccccc2O)nc1O` showed an IC50 of 17000 nM.

`COc1ccccc1-c1cc(-c2ccccc2O)nc(O)c1C#N` returned an IC50 of 12 nM.

Take `N#Cc1c(-c2cccc([N+](=O)[O-])c2)cc(-c2ccccc2O)nc1O`: the half-maximal inhibitory concentration (IC50) stood at 500 nM.

`COc1ccc([C@@H]2Sc3ccccc3N(CCN(C)C)C(=O)[C@@H]2OC(C)=O)cc1` [DILTIAZEM] had a concentration for half-maximal inhibition (IC50) of 48 nM.

For a further assay, the species on record is Rattus norvegicus. Kind of assay: Vasorelaxing activity expressed as maximum smooth muscle relaxation at 1*10e-4 M. In kind it is functional.
`Cc1ccccc1-c1cc(-c2ccccc2O)nc(O)c1C#N` yielded a Max relaxation of 89.17%.

Consider `N#Cc1c(-c2ccccc2Cl)cc(-c2ccccc2O)nc1O`, for which the Max relaxation stood at 79.78%.

`COc1ccc(-c2cc(-c3ccccc3O)nc(O)c2C#N)c(OC)c1` yielded a Max relaxation of 40%.

Consider `N#Cc1c(-c2ccccc2)cc(-c2ccccc2O)[nH]c1=O`, for which the Max relaxation is on record as 23.86%.

In turn, `N#Cc1c(-c2ccccc2Br)cc(-c2ccccc2O)nc1O` returned a Max relaxation of 35.29%.

With `COc1ccccc1-c1cc(-c2ccccc2O)nc(O)c1C#N`, the Max relaxation came out at 99.54%.

`N#Cc1c(-c2cccc([N+](=O)[O-])c2)cc(-c2ccccc2O)nc1O` had a Max relaxation of 64%.

`COc1ccc([C@@H]2Sc3ccccc3N(CCN(C)C)C(=O)[C@@H]2OC(C)=O)cc1` [DILTIAZEM] yielded a Max relaxation of 97.86%.
